Results published in patent US4196205A, “3-Acetoxymethyl-7-(iminoacetamido)-cephalosporanic acid derivatives” (priority 1976, dated 1980).
Values after ≈ are worked out from the molar mass of the structure shown. Like-named read-outs stand apart in the source and are kept apart here.

Key:
[1] = test system: Staphylococcus aureus UC 1 128 Pen-Resistant; test: MIC, dilution in liquid medium; assay type: cell-based; details: for MIC: Staphylococcus aureus, read-out: M.I.C.
Procedure: (§1) The method used was a dilution of a liquid medium where a series of tubes received the same quantity of a sterile nutritive media and increasing doses of the test compounds were placed therein. Then each tube was seeded with a bacterial strain and was incubated for 24 to 48 hours at 37° C. in an oven. The increasing inhibition was determined by transillumination to determine the minimum inhibiting concentration (MIC in […]) and the results are reported in the following Tables.

[2] = test system: Klebsiella pneumoniae 2 536 Resistant Gentamicine; test: MIC, dilution in liquid medium; assay type: cell-based; details: for MIC: Klebsiella pneumoniae
Procedure: as §1

Enterobacter cloacae 681 = test: MIC, dilution in liquid medium; assay type: cell-based
Procedure: as §1

[3] = test system: Staphylococcus aureus exp. n° 54 146; test: MIC, dilution in liquid medium; assay type: cell-based; details: for MIC: Staphylococcus aureus
Procedure: as §1

[4] = test system: Escherichia Coli Sensible Tetracycline ATCC 9 637 = 1020; test: MIC, dilution in liquid medium; assay type: cell-based; details: for MIC: Escherichia coli
Procedure: as §1

[5] = test system: Escherichia Coli Resistant Gentamicine, Tobramycine R 55 123 D; test: MIC, dilution in liquid medium; assay type: cell-based; details: for MIC: Escherichia coli
Procedure: as §1

[6] = test system: Staphylococcus aureus ATCC 5 638 Pen-Sensible = UC 1061; test: MIC, dilution in liquid medium; assay type: cell-based
Procedure: as §1

[7] = test system: Proteus mirabilis (indol-) A 235; test: MIC, dilution in liquid medium; assay type: cell-based; details: for MIC: Proteus mirabilis
Procedure: as §1

[8] = test system: Escherichia Coli Exp. TO26 B6; test: MIC, dilution in liquid medium; assay type: cell-based; details: for MIC: Escherichia coli
Procedure: as §1

[9] = test system: Salmonella typhimurium 420; test: MIC, dilution in liquid medium; assay type: cell-based; details: for MIC: Salmonella enterica, TYPHIMURIUM
Procedure: as §1

[10] = test system: Escherichia Coli Resistant Tetracycline ATCC 11 303 = UC 1261; test: MIC, dilution in liquid medium; assay type: cell-based; details: for MIC: Escherichia coli
Procedure: as §1

[11] = test system: Klebsiella pneumoniae Exp. 52 145; test: MIC, dilution in liquid medium; assay type: cell-based; details: for MIC: Klebsiella pneumoniae
Procedure: as §1

[12] = test system: Bacillus subtilis ATCC 6 633; test: MIC, dilution in liquid medium; assay type: cell-based; details: for MIC: Bacillus subtilis
Procedure: as §1

[13] = test system: Streptococcus pyogenes A 561; test: MIC, dilution in liquid medium; assay type: cell-based; details: for MIC: Streptococcus pyogenes, read-out: M.I.C.
Procedure: as §1

[14] = test system: Salmonella typhimurium 5210; test: Experimental infection with Salmonella typhimurium in mice; assay type: in vivo
Procedure: Groups of 10 mice with an average weight of 20.5 g were intraperitoneally injected with 0.5 ml of a 24 hour old culture in oxoid bouillon of Salmonella typhimurium 5210 diluted 1/75 with distilled water. The product of Example 7 was administered subcutaneously one hour and 4, 8, 24 and 32 hours after the infection and the results, determined as before, are reported in the following Table.

[15] = test system: Streptococcus faecalis 5 432; test: MIC, dilution in liquid medium; assay type: cell-based
Procedure: as §1

[16] = test system: Proteus vulgaris (indol+) A 232; test: MIC, dilution in liquid medium; assay type: cell-based; details: Proteus vulgaris, read-out: M.I.C.
Procedure: as §1

[17] = test system: Pseudomonas 3 935 Exp. SG; test: MIC, dilution in liquid medium; assay type: cell-based
Procedure: as §1

[18] = test system: Streptococcus faecalis 99 F 74; test: MIC, dilution in liquid medium; assay type: cell-based
Procedure: as §1

Providencia Du 48 = test: MIC, dilution in liquid medium; assay type: cell-based
Procedure: as §1

Acute toxicity in mice = assay type: in vivo, female mice of Swiss CD1 Specific Pathogen Free Strain; details: for Total Mortality: 4 days
Procedure: The acute toxicity of the product of Example 7 was determined on groups of 8 to 10 female mice of Swiss CD1 Specific Pathogen Free Strain (stock CH.River-France), with an average weight of 19 to 21 g, for each dose of the compound.
The animals had injection in the caudal vein in a variable volume at a rate of 1 ml/mn of the product of Example 7 dissolved at a concentration of 100 mg/ml in sterile apyrogen distilled water.

With `CC(=O)OCC1=C(C(=O)O)N2C(=O)[C@@H](NC(=O)/C(=N/O)c3csc(N)n3)[C@H]2SC1` [3-acetoxymethyl-7-[2-(2amino-4-thiazolyl)-2-hydroxyiminoacetamido]-ceph-3-eme-4-carboxylic acid] the MIC ([1]; UC1, 24 h) was 10 µg/mL (≈ 22.7 µM), the MIC ([1]; UC1, 48 h) was 10 µg/mL (≈ 22.7 µM) and the MIC ([2]; 24 h) was 20 µg/mL (≈ 45.3 µM). For the same compound, the MIC ([2]; 48 h) was 40 µg/mL (≈ 90.6 µM), the MIC (Enterobacter cloacae 681; Enterobacter cloacae, 681, 24 h) was 40 µg/mL (≈ 90.6 µM) and the MIC (Enterobacter cloacae 681; Enterobacter cloacae, 681, 48 h) was 40 µg/mL (≈ 90.6 µM). The MIC ([3]; 24 h) was 5 µg/mL (≈ 11.3 µM), the MIC ([3]; 48 h, read-out: M.I.C.) was 10 µg/mL (≈ 22.7 µM) and the MIC ([4]; ATCC 9 / UC1020, 24 h, 24 H, ST UC 1020) was 3 µg/mL (≈ 6.8 µM). For the same compound, the MIC ([4]; ATCC 9 / UC1020, 48 h, 48 H, ST UC 1020) was 3 µg/mL (≈ 6.8 µM), the MIC ([5]; 24 h) was 5 µg/mL (≈ 11.3 µM) and the MIC ([5]; 48 h, RG R55 123D, read-out: M.I.C.) was 10 µg/mL (≈ 22.7 µM). It also gave an MIC ([6]; 24 h, UC 1061 Pen-Sensible) of 5 µg/mL (≈ 11.3 µM), an MIC ([6]; 48 h, UC 1061 Pen-Sensible) of 5 µg/mL (≈ 11.3 µM) and an MIC ([7]; 24 h) of 2 µg/mL (≈ 4.53 µM). For the same compound, the MIC ([7]; 48 h) was 2 µg/mL (≈ 4.53 µM), the MIC ([8]; 24 h) was 2 µg/mL (≈ 4.53 µM) and the MIC ([8]; 48 h) was 2 µg/mL (≈ 4.53 µM). The MIC ([9]; 24 h) was 2 µg/mL (≈ 4.53 µM), the MIC ([9]; 48 h) was 2 µg/mL (≈ 4.53 µM) and the MIC ([10]; 24 h) was 1 µg/mL (≈ 2.27 µM). The MIC ([10]; 48 h) was 1 µg/mL (≈ 2.27 µM), the MIC ([11]; EXP.52145, 24 h, 24 H, read-out: M.I.C.) was 0.6 µg/mL (≈ 1.36 µM) and the MIC ([11]; EXP.52145, 48 h, 48 H) was 0.6 µg/mL (≈ 1.36 µM). It also gave an MIC ([12]; ATCC6, 24 h, 24 H) of 2 µg/mL (≈ 4.53 µM), an MIC ([12]; ATCC6, 48 h, 48 H) of 5 µg/mL (≈ 11.3 µM) and an MIC ([13]; A561, 24 h, 24 H) of 0.5 µg/mL (≈ 1.13 µM). The MIC ([13]; A561, 48 h, 48 H) was 0.5 µg/mL (≈ 1.13 µM).

With `CO/N=C(\C(=O)N[C@@H]1C(=O)N2C(C(=O)O)=C(COC(C)=O)CS[C@H]12)c1csc(N)n1` [Example 7, sodium 3-acetoxymethyl-7-[2-(2-amino-4-thiazolyl)-2-methoxyiminoacetamido]-ceph-3-eme-4-carboxylate] the “MORTALITY AFTER 6J” value ([14]; 0,1 mg subcutaneously) was 3, the “MORTALITY AFTER 7J” value ([14]; 0,1 mg subcutaneously) was 3 and the “MORTALITY AFTER 8J” value ([14]; 0,1 mg subcutaneously) was 1. For the same compound, the “Mice alive on the 10th day” value ([14]; 0,1 mg subcutaneously) was 3/10, the “MORTALITY AFTER 5J” value ([14]; 0,5 mg subcutaneously) was 1 and the “MORTALITY AFTER 6J” value ([14]; 0,5 mg subcutaneously) was 1. For the same compound, the “MORTALITY AFTER 7J” value ([14]; 0,5 mg subcutaneously) was 1, the “Mice alive on the 10th day” value ([14]; 0,5 mg subcutaneously) was 7/10 and the “MORTALITY AFTER 7J” value ([14]; 0,25 mg subcutaneously) was 2. The “MORTALITY AFTER 8J” value ([14]; 0,25 mg subcutaneously) was 1, the “MORTALITY AFTER 9J” value ([14]; 0,25 mg subcutaneously) was 2 and the “Mice alive on the 10th day” value ([14]; 0,25 mg subcutaneously) was 5/10. For the same compound, the “MORTALITY AFTER 8J” value ([14]; 1 mg subcutaneously) was 1, the “Mice alive on the 10th day” value ([14]; 1 mg subcutaneously) was 9/10 and the “Mice alive on the 10th day” value ([14]; 2 mg subcutaneously) was 10/10. For the same compound, the M.I.C. ([15]; 24 H) was 1 µg/mL, the M.I.C. ([15]; 48 H) was 3 µg/mL and the MIC ([16]; 24 h) was 0.2 µg/mL. The MIC ([16]; 48 h) was 0.6 µg/mL, the M.I.C. ([1]; 24 H) was 2 µg/mL and the M.I.C. ([1]; 48 H) was 3 µg/mL. For the same compound, the M.I.C. ([2]; 24 H) was 0,2 μg/ml, the M.I.C. ([2]; 48 H) was 0,2 μg/ml and the M.I.C. ([3]; 48 H) was 2 µg/mL. The MIC ([3]; 24 h) was 2 µg/mL, the M.I.C. ([4]; 24 H) was 0,1 μg/ml and the MIC ([4]; ATCC9, 48 h, 48 H, read-out: M.I.C.) was 0.1 µg/mL. For the same compound, the M.I.C. ([5]; 24 H) was 0,1 μg/ml, the M.I.C. ([5]; 48 H) was 0,1 μg/ml and the M.I.C. ([17]; 24 H) was 10 µg/mL. For the same compound, the M.I.C. ([17]; 48 H) was 20 µg/mL, the MIC ([6]; 48 h) was 2 µg/mL and the M.I.C. ([7]; 24 H) was ≤ 0,02 μg/ml. For the same compound, the M.I.C. ([7]; 48 H) was ≤ 0,02 μg/ml, the M.I.C. ([8]; 24 H) was 0,05 μg/ml and the M.I.C. ([8]; 48 H) was 0,05 μg/ml. The M.I.C. ([9]; 24 H) was 0,1 μg/ml, the M.I.C. ([9]; 48 H) was 20 µg/mL and the M.I.C. ([18]; 24 H) was 3 µg/mL. For the same compound, the MIC ([18]; Enterococcus faecalis, 99F74, 48 h, read-out: M.I.C.) was 10 µg/mL, the M.I.C. ([10]; 24 H) was ≤ 0,02 μg/ml and the M.I.C. ([10]; 48 H) was ≤ 0,02 μg/ml. For the same compound, the M.I.C. (Providencia Du 48; 24 H) was 1 µg/mL, the M.I.C. (Providencia Du 48; 48 H) was 2 µg/mL and the M.I.C. ([11]; 24 H) was ≤ 0,02 μg/ml. The M.I.C. ([11]; 48 H) was no more than 0.02 µg/mL, the M.I.C. ([12]; 24 H) was 1 µg/mL and the M.I.C. ([12]; 48 H) was 2 µg/mL. For the same compound, the M.I.C. ([13]; 24 H) was 0,01 μg/ml, the M.I.C. ([13]; 48 H) was 0,01 μg/ml and the lethal dose (Acute toxicity in mice; caudal vein, mice) was “above 2000 mg/kg”. For the same compound, the “Total Mortality” value (Acute toxicity in mice; dose 500 mg, caudal vein) was 0/10, the “Total Mortality” value (Acute toxicity in mice; dose 1000 mg, caudal vein) was 0/10 and the “Total Mortality” value (Acute toxicity in mice; dose 2000 mg, caudal vein) was 0/8. The Symptomatology (Acute toxicity in mice; following the injections and during the observation period) was “No symptoms of intoxication were noted”.
